Data published in paper PMC5717258, “Bioaccumulation of pharmaceuticals and personal care product chemicals in fish exposed to wastewater effluent in an urban wetland” (Scientific Reports, 2017).
Where two headings read alike, the source gives them in different places.

How the values were obtained:
[1] = Protocol: Plasma from 9 individual male fish (500 µL/individual) was pooled to yield 3 samples for PPCP analysis. […] Plasma from 6 individual carp (2.3–3.5 g) from each location was selected for PPCP analysis. […] Plasma samples were frozen (−80 °C) until analysis.
(§1) A total of 20 fish plasma samples from the pooled caged fish (7) and the wild fish (13) along with 12 water samples were selected for analysis. […] A full list of analytes is provided in Supplementary Information. Mass labelled^13C-, or deuterated surrogate internal standards were used for quantification of all analytes via the isotope dilution/surrogate standard quantitation method. Prior to extraction and/or clean-up procedures, aqueous samples were adjusted to pH 2.0, spiked with extraction surrogate standards, then adjusted to pH 4 using tetrasodium ethylenediamine-tetraacetate dihydrate. Plasma samples (2.3–2.5 g) were spiked with extraction surrogate standards, sonicated with 20 mL acetonitrile, then diluted with ultra-pure water to 200 mL. The extracts were cleaned up by solid phase extraction using Oasis HLB cartridges (Waters Ltd. Mississauga ON), filtered, and analyzed by liquid chromatography-electrospray ionization-tandem mass spectrometry (LC/ESI-MS/MS) in positive or negative ionization mode. The analysis of the complete list of analytes (SI Table S1) required a total of five instrumental runs.
(§2) Quality assurance steps included analysis of lab blanks for water and plasma along with matrix recovery spikes. […] Detection limits (DLs) were defined as lowest calibration level adjusted to the maximal sample size or 3 times the signal of the noise in the target channel converted to an equivalent sample, whichever was greater. […] Where analytes were detected in two or more samples of the same species or series of water samples, non-detect values were converted to ½ the DL value for reporting purposes.

[2] = cited from earlier work
[3] = cited from earlier work; remark: listed apart in the source
in vivo = conditions: for concentration at 21 days: goldfish (Carassius auratus)
Source text: Cages were visited weekly, and fish (13/cage) were fed during the visits (20 g/cage). All animal experiments were in accordance with CCAC guidance and approved by the GLLFAS-WSTD Animal Care Committee (Government of Canada). Further details on the caging and preparation of the fish and animal care protocols are provided in Simmons et al.[32]. […] A fourth site, Jordan Harbour (JH), a widening of 20 Mile Creek adjacent to Lake Ontario near Jordan ON, served as a reference site. Mass and fork length were measured and recorded. Plasma collection and storage is described in the SI. Plasma of caged goldfish was divided for proteome, metabolome and PPCP analysis. Due to limited volumes, pooled samples of plasma from 25 individual fish (50 µL/individual) was pooled to yield one sample from at each location for PPCP analysis.
as §1, §2

[4] = parameters: method as in US EPA Chemistry Dashboard; conditions: ref US EPA Chemistry Dashboard; cited from earlier work
[5] = human, ref Schulz et al.[56], cited from earlier work; for Therapeutic "normal" blood-plasma/serum concentration: converted from µg/mL
[6] = Plasma bioaccumulation factor (BAFP), goldfish; assay type: in vivo, goldfish (Carassius auratus); conditions: for BAFP, CPM2 goldfish caged: water sample of August 2012; for BAFP at CPM3, wild goldfish, average: conc in fish plasma/conc in water; for BAFP at CPM3, wild goldfish, range: range based on range of plasma concentrations
Protocol: Bioaccumulation factor (BAFP) was calculated as concentration in fish plasma (ng/g × 1000) divided by concentration in water (ng/L). Two widely used modeling approaches for predicting organic contaminant bioaccumulation were assessed: the BCF-BAF model for whole body BAFs[53] and the fish-plasma concentration calculation of Huggett et al.[35] modified by Berninger et al.[54]. The latter involves estimating an octanol-water partition coefficient (Kow) adjusted for fraction ionized (log D), using the pKa value to adjust log Kow[54] taking into account the pH of CPM waters. Further information on the calculation of log D, blood-water partitioning (PBW), and plasma concentrations (FPC) is given in the SI.

[7] = wild goldfish sample 01, 2012, wet weight
[8] = wild goldfish sample 02, 2012, wet weight
[9] = wild goldfish sample 03, 2012, wet weight
[10] = CPM1, 07-2014, pooled plasma, wet weight
[11] = CPM2, 07-2014, pooled plasma, wet weight
[12] = CPM3, 07-2014, pooled plasma, wet weight
[13] = Jordan Harbour reference site, 07-2014, pooled plasma, wet weight
[14] = Table S7, ref Meador et al. (2016)
[15] = male, goldfish (Carassius auratus), in vivo
[16] = in vivo, caged goldfish plasma, range of concentrations
[17] = in vivo, plasma concentration, CPM1 caged
[18] = in vivo, plasma concentration, CPM2 caged
[19] = in vivo, plasma concentration, CPM3 caged
[20] = in vivo, plasma concentration, JH caged

## CN(C)CCC=C1c2ccccc2CC(O)c2ccccc21 (stereo not shown) [10-hydroxy-amitriptyline]
[1]; Cootes carp 01, 2011, male, wet weight
  plasma concentration, CPM-C 01: 0.032 ng/g
[1]; Cootes carp 2, Sep 27, 2011, male, wet weight
  plasma concentration, CPM-C 2: 0.053 ng/g
[1]; Cootes carp 10, Sep 28, 2011, female, wet weight
  plasma concentration, CPM-C 10: 0.024 ng/g
[1]; Cootes carp 13, Sep 28, 2011, female, wet weight
  plasma concentration, CPM-C 13: 0.047 ng/g
[1]; Cootes carp 20, 2011, male, wet weight
  plasma concentration, CPM-C 20: 0.016 ng/g
[1]; Cootes carp 36, Oct 3, 2011, female, wet weight
  plasma concentration, CPM-C 36: 0.025 ng/g
[1]; Table S7
  Carp plasma concentration, this study (range): 0.02 to 0.05 ng/g
  Goldfish plasma concentration, this study (range): 0.01 to 0.06 ng/g
[1]; [7]
  plasma concentration, CPM wild-01: 0.015 ng/g
[1]; [8]
  plasma concentration, CPM wild-02: 0.036 ng/g
[1]; [9]
  plasma concentration, CPM wild-03: 0.058 ng/g
[2]; in vivo
  Salmon (whole body) concentration: 0.09 ng/g
[3]; in vivo
  Sculpin (whole body) concentration: 0.13 ng/g
In vivo; [10]
  plasma concentration, CPM1 caged: 0.033 ng/g
In vivo; [11]
  plasma concentration, CPM2 caged: 0.039 ng/g
In vivo; [12]
  plasma concentration, CPM3 caged: 0.015 ng/g
In vivo; [13]
  plasma concentration, JH caged: < 0.03 ng/g

## Cc1nnc2n1-c1ccc(Cl)cc1C(c1ccccc1)=NC2 [Alpr azolam, Alprazolam]
[3]; [14]
  Sculpin (whole body) concentration: 0.38 ng/g

## CN(C)CCC=C1c2ccccc2CCc2ccccc21 [Amitriptyline]
[1]; Table S7
  Goldfish plasma concentration, this study (range): 0.03 to 0.09 ng/g
[1]; [7]
  plasma concentration, CPM wild-01: 0.029 ng/g
[1]; [8]
  plasma concentration, CPM wild-02: 0.082 ng/g
[1]; [9]
  plasma concentration, CPM wild-03: 0.091 ng/g
[2]; [14]
  Salmon (whole body) concentration: 0.58 to 0.68 ng/g
In vivo; in vivo, plasma concentration, CPM1 caged, CPM1, 07-2014, pooled plasma, wet weight
  concentration at 21 days: 0.029 ng/g
In vivo; in vivo, plasma concentration, CPM2 caged, CPM2, 07-2014, pooled plasma, wet weight
  concentration at 21 days: 0.029 ng/g
In vivo; in vivo, plasma concentration, CPM3 caged, CPM3, 07-2014, pooled plasma, wet weight
  concentration at 21 days: 0.031 ng/g
In vivo; in vivo, plasma concentration, JH caged, Jordan Harbour reference site, 07-2014, pooled plasma, wet weight
  concentration at 21 days: < 0.06 ng/g

## CC[C@H]1OC(=O)[C@H](C)[C@@H](O[C@H]2C[C@@](C)(OC)[C@@H](O)[C@H](C)O2)[C@H](C)[C@@H](O[C@@H]2O[C@H](C)C[C@H](N(C)C)[C@H]2O)[C@](C)(O)C[C@@H](C)CN(C)[C@H](C)[C@@H](O)[C@]1(C)O [Azithrom yc in, Azithromycin]
[2]; [14]
  Salmon (whole body) concentration: 1.7 ng/g

## CN1[C@@H]2CC[C@H]1C[C@@H](OC(c1ccccc1)c1ccccc1)C2 [Benztropine]
[2]; [14]
  Salmon (whole body) concentration: 0.2 ng/g
[2]; ref Meador et al. 18
  whole fish concentration, salmon: 0.2 ng/g wet weight or ng/mL for plasma
[4]
  log Kow: 3.85
[3]; ref Meador et al. 18
  whole fish concentration, sculpin: < mdl
[5]
  Therapeutic "normal" blood-plasma/serum concentration: 10 to 180 ng/mL
  toxic dose (toxic blood-plasma/serum concentration): 50 ng/mL

## CC(C)(c1ccc(O)cc1)c1ccc(O)cc1 [Bisphenol A]
[2]; [14]
  Salmon (whole body) concentration: 3.3 to 41 ng/g
[3]; [14]
  Sculpin (whole body) concentration: 3.6 to 4.5 ng/g

## O=C(O)c1cn(C2CC2)c2cc(N3CCNCC3)c(F)cc2c1=O [Ciproﬂoxacin, Ciprofloxacin]
[3]; [14]
  Sculpin (whole body) concentration: 17 ng/g

## CN(C)CCCC1(c2ccc(F)cc2)OCc2cc(C#N)ccc21 (stereo not shown) [Citalopram]
[1]; in vivo
  plasma concentration, carp, this study (mean): < mdl
[1]; [15]
  plasma concentration, CPM wild-01: 0.0392 ng/g
  plasma concentration, CPM wild-02: 0.127 ng/g
  plasma concentration, CPM wild-03: 0.13 ng/g
  plasma concentration, goldfish, this study (mean): 0.10 ng/g wet weight or ng/mL for plasma
  wild goldfish plasma, range of concentrations: 0.04 to 0.16 ng/g
[4]
  log Kow: 3.74
In vivo; [16]
  concentration at 21 days: 0.04 to 0.13 ng/g
In vivo; [17]
  concentration at 21 days: 0.145 ng/g
In vivo; [18]
  concentration at 21 days: 0.163 ng/g
In vivo; [19]
  concentration at 21 days: 0.041 ng/g
In vivo; [20]
  concentration at 21 days: < 0.08 ng/g
[5]
  Therapeutic "normal" blood-plasma/serum concentration: 50 to 110 ng/mL
[6]
  BAFP, CPM1 goldfish caged: 4 L/kg
  BAFP, CPM2 goldfish caged: 6 L/kg
  BAFP, CPM3 goldfish caged: 52 L/kg
  BAFP at CPM3, wild goldfish, average: 44 L/kg
  BAFP at CPM3, wild goldfish, range: 18 to 58 L/kg

## CNCCN1C(=O)[C@H](OC(C)=O)[C@H](c2ccc(OC)cc2)Sc2ccccc21 [Desm eth yld ilt ia zem, Desmethyldiltiazem]
[2]; [14]
  Salmon (whole body) concentration: 0.06 to 1.5 ng/g
[3]; [14]
  Sculpin (whole body) concentration: 0.07 to 0.08 ng/g

## CN1C(=O)CN=C(c2ccccc2)c2cc(Cl)ccc21 [Diazepam]
[2]; [14]
  Salmon (whole body) concentration: 0.39 ng/g
[3]; [14]
  Sculpin (whole body) concentration: 0.25 ng/g

## CN(C)CCOC(c1ccccc1)c1ccccc1 [Diphenhydramine]
[6]
  BAFP, CPM1 goldfish caged: 7 L/kg
  BAFP, CPM2 goldfish caged: 5 L/kg

## CNCCC(Oc1ccc(C(F)(F)F)cc1)c1ccccc1 (stereo not shown) [Fluoxetine]
[2]; [14]
  Salmon (whole body) concentration: 4.9 ng/g

## C[C@H](O)C(=O)Nc1c(I)c(C(=O)NC(CO)CO)c(I)c(C(=O)NC(CO)CO)c1I [Iopamidol]
[1]; in vivo
  plasma concentration, carp, this study (mean): < mdl
[1]; [15]
  plasma concentration, CPM wild-01: 7.85 ng/g
  plasma concentration, CPM wild-02: 8.15 ng/g
  plasma concentration, CPM wild-03: 8.35 ng/g
  plasma concentration, goldfish, this study (mean): 8.12 ng/g wet weight or ng/mL for plasma
  wild goldfish plasma, range of concentrations: 8.2 to 20.9 ng/g
[4]
  log Kow: -2.21
In vivo; [16]
  concentration at 21 days: 7.85 to 8.35 ng/g
In vivo; [17]
  concentration at 21 days: 20.9 ng/g
In vivo; [18]
  concentration at 21 days: 17.6 ng/g
In vivo; [19]
  concentration at 21 days: 8.2 ng/g
In vivo; [20]
  concentration at 21 days: < 16 ng/g
[6]
  BAFP, CPM1 goldfish caged: 75 L/kg
  BAFP, CPM2 goldfish caged: 50 L/kg
  BAFP, CPM3 goldfish caged: 13 L/kg
  BAFP at CPM3, wild goldfish, average: 38 L/kg
  BAFP at CPM3, wild goldfish, range: 37 to 40 L/kg

## Clc1ccc(COC(Cn2ccnc2)c2ccc(Cl)cc2Cl)c(Cl)c1 (stereo not shown) [Miconazole]
[2]; [14]
  Salmon (whole body) concentration: 1.8 ng/g

## COc1ccc(CCNCCCC(C#N)(c2ccc(OC)c(OC)c2)C(C)C)cc1OC (stereo not shown) [Norverapam il, Norverapamil]
[2]; [14]
  Salmon (whole body) concentration: 0.12 to 0.47 ng/g
[3]; [14]
  Sculpin (whole body) concentration: 0.20 to 0.30 ng/g

## COc1cc(C)c(Cc2cnc(N)nc2N)cc1OC [Orm etoprim, Ormetoprim]
[2]; [14]
  Salmon (whole body) concentration: 44 to 1600 ng/g

## Nc1ccc(S(=O)(=O)Nc2ncccn2)cc1 [Sulfadiazine]
[2]; [14]
  Salmon (whole body) concentration: 0.88 ng/g

## COc1cc(NS(=O)(=O)c2ccc(N)cc2)nc(OC)n1 [Sulfadim ethoxine, Sulfadimethoxine]
[2]; [14]
  Salmon (whole body) concentration: 0.34 to 17 ng/g

## Cc1ccnc(NS(=O)(=O)c2ccc(N)cc2)n1 [Sulfam erazine, Sulfamerazine]
[2]; [14]
  Salmon (whole body) concentration: 0.51 ng/g

## Oc1cc(Cl)ccc1Oc1ccc(Cl)cc1Cl [T riclosan, Triclosan]
[2]; [14]
  Salmon (whole body) concentration: 26 ng/g

## CC1=C\[C@@H](O)CC(=O)Cc2nc(co2)C(=O)N2CCC=C2C(=O)O[C@H](C(C)C)[C@H](C)/C=C/C(=O)NC\C=C\1 [Virg in iam ycin M1, Virginiamycin M1]
[2]; [14]
  Salmon (whole body) concentration: 10 ng/g
[3]; [14]
  Sculpin (whole body) concentration: 8 to 34 ng/g

## NC(=O)N1c2ccccc2C=Cc2ccccc21 [carbamazepine]
In vivo; in vivo
  detection in fish plasma: not detected

## Anhydrochlortetracycline
[1]; [7]
  plasma concentration, CPM wild-01: < 2.94 ng/g
[1]; [8]
  plasma concentration, CPM wild-02: < 3.18 ng/g
[1]; [9]
  plasma concentration, CPM wild-03: < 3.13 ng/g
In vivo; [10]
  plasma concentration, CPM1 caged: 2.97 ng/g
In vivo; [11]
  plasma concentration, CPM2 caged: < 2.92 ng/g
In vivo; [12]
  plasma concentration, CPM3 caged: < 3.07 ng/g
In vivo; [13]
  plasma concentration, JH caged: < 3.0 ng/g
